Converted amounts (≈) assume the structure as drawn.
Assays:
[1] = system: Acinetobacter baumannii (AB), ATCC BAA747; test: Susceptibility (MIC); format: cell-based; conditions: ATCCBAA747, wild type AB ATCC BAA747, previously found
Description: Microorganism. A laboratory reference wild type Acinetobacter baumannii (AB), ATCC BAA747, was utilized in the study. The bacteria were stored at −70° C. in Protect® vials. Before the experiment, the bacteria were subcultured at least twice on 5% blood agar plates for 24 hours at 35° C. and fresh colonies were used.

[2] = system: A. baumannii 1261 (clinical isolate); test: Clinical isolate exposed to antibiotic concentration combinations in 4×4 array, tracked over 24 h on 216Dx; format: cell-based, Acinetobacter baumannii; conditions: clinical isolate of A. baumannii (multidrug resistant)
Description: FIG. 3. A. baumannii 1261 was exposed to 16 different concentration combinations of levofloxacin (L) and amikacin (A). Each sequence of points represents the time course of the bacterial population (baseline inoculum approximately 2-5×10^5 CFU/ml) exposed to one levofloxacin/amikacin concentration combination (e.g., levofloxacin 20 mg/l+amikacin 30 mg/ is shown in hollow squares). Bacteria exposed to drugs with no activity produce profiles that superimpose on those from placebo controls; antimicrobial activity manifests as a delay or absence of growth.
Ineffective antibiotics may have acceptable activity when combined. A clinical isolate of A. baumannii was exposed to different antibiotic concentration combinations in a 4×4 array, and the bacterial burden was tracked over 24 h using the prototype technical platform 216Dx. While the isolate is resistant to levofloxacin, amikacin and cefepime (multidrug resistant), bacterial growth was delayed in selected combinations (FIG. 3) and the profiles were reasonably captured by the mathematical modeling framework (1) shown above (FIG. 1, right).

Compound | MIC [1] | susceptibility phenotype of the isolate [2]
C[C@H]1COc2c(N3CCN(C)CC3)c(F)cc3c(=O)c(C(=O)O)cn1c23 [LVX, Levofloxacin] | 0.25 µg/mL (≈ 0.692 µM) | 
NCC[C@H](O)C(=O)N[C@@H]1C[C@H](N)[C@@H](O[C@H]2O[C@H](CN)[C@@H](O)[C@H](O)[C@H]2O)[C@H](O)[C@H]1O[C@H]1O[C@H](CO)[C@@H](O)[C@H](N)[C@H]1O [amikacin] |  | resistant
CO/N=C(\C(=O)N[C@@H]1C(=O)N2C(C(=O)[O-])=C(C[N+]3(C)CCCC3)CS[C@H]12)c1csc(N)n1 [cefepime] |  | resistant

Source: patent US20230044633A1, “OPTICAL BASED METHODS FOR DETERMINING ANTIMICROBIAL DOSING REGIMENS” (University of Houston System, priority 2019, published 2023)
